Reference: ChEMBL document CHEMBL1201862, “PubChem BioAssay data set” (2004)
Values belong to the compound of their own block, whether it stands above or below them. Active and inactive are the calls of the source.

How the values were obtained:
CAAX prenyl protease 2 = target: T1, CAAX prenyl protease 2 (Saccharomyces cerevisiae S288c, UniProt Q03530); type: biochemical
T1 sequence (Q03530 whole entry): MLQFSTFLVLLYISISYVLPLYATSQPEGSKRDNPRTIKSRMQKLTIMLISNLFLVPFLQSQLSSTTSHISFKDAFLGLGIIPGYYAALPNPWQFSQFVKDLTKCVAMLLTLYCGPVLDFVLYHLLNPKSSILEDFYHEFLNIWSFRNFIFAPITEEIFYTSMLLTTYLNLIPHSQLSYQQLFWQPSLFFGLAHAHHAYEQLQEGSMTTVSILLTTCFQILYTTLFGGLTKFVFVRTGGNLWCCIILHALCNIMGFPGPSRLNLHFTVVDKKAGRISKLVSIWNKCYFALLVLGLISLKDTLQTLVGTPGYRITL

Trypsin = Trypsin (Sus scrofa, UniProt P00761); experiment: porcine trypsin inhibitors, dose response, selectivity assay for Rce1 protease inhibitor project, biochemical, quenched peptide fluorescence, cherry-pick (AID 488789)
INS1 = experiment: beta cell apoptosis inhibitors, cytokine rescue, dose response, luminescence, retest (AID 449756); type: functional, cell-based; conditions: Rattus norvegicus;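 note: cell death triggered by IL-1 beta plus TNF-alpha plus IFN-gamma mixture; protective hits raise ATP signal compared with cytokine alone wells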
[1] = target: Intestinal-type alkaline phosphatase (Homo sapiens, UniProt P09923); experiment: Dose Response confirmation of uHTS hits from a small molecule inhibitors of human intestinal alkaline phosphatase via a luminescent assay. [Related pubchem assays (depositor defined):AID2544, AID2574]; type: functional
[2] = HeLa cell cytotoxicity, dose response, cytotoxicity control for MgcRacGAP inhibitor project (AID 624300); type: functional
[3] = target: Melanin-concentrating hormone receptor 1 (Homo sapiens, UniProt Q99705); experiment: Late-stage fluorescence-based counterscreen for antagonists of the G-protein coupled receptor 7 (GPR7): cell-based dose response assay to identify antagonists of the melanin-concentrating hormone receptor 1 (MCHR1). [Related pubchem assays (depositor defined):AID1861, AID1880, AID1952, AID2148, AID2251, AID2257, AID485339]; type: functional;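 note: stimulated with 30 nM MCH peptide agonist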
ORF 73 = target: T2, ORF 73 (Human herpesvirus 8, UniProt O40947); experiment: inhibitors of C-LANA binding to LBS DNA, dose response, biochemical, fluorescence polarization, cherry-picked samples (AID 504725); design: species or system Human gammaherpesvirus 8;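 note: fluorescence polarization of a labeled DNA duplex reporting LANA DNA binding; potency is for inhibitors that block LANA binding to the DNA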
T2 sequence (O40947 whole entry): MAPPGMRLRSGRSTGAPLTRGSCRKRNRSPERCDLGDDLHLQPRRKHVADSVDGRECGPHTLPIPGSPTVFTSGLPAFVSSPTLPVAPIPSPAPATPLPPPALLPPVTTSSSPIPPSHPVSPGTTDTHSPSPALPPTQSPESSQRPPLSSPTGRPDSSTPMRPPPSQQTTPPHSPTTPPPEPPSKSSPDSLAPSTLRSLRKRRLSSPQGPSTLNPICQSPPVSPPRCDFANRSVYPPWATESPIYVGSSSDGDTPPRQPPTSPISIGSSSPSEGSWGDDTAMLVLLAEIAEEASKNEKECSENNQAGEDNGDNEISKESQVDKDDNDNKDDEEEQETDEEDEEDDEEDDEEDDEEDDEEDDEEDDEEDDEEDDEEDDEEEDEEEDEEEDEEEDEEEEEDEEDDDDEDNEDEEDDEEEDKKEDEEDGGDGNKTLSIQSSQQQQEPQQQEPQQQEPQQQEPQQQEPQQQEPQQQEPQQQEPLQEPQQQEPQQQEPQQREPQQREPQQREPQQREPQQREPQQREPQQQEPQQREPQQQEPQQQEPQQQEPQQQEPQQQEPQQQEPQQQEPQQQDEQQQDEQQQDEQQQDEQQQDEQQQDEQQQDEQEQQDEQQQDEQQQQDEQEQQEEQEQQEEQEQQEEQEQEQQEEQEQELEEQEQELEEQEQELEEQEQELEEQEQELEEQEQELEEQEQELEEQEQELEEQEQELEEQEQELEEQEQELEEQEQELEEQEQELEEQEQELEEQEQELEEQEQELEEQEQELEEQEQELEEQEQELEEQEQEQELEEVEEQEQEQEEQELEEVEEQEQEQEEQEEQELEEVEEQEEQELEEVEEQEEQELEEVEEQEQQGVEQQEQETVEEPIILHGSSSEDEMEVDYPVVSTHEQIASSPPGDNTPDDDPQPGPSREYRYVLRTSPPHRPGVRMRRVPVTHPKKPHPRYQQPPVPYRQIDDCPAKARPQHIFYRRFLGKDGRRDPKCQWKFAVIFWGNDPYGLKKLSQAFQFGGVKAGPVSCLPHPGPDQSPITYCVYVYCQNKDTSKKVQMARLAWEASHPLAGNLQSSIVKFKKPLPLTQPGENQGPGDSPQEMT

HeLa = experiment: HeLa cell cytotoxicity, dose response, cytotoxicity control, 24 h, cherry-picked samples (AID 504726); type: functional, cell-based; conditions: Homo sapiens;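 note: potency for cytotoxicity as loss of luminescence signal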

Chain of Intestinal-type alkaline phosphatase (P09923 whole entry): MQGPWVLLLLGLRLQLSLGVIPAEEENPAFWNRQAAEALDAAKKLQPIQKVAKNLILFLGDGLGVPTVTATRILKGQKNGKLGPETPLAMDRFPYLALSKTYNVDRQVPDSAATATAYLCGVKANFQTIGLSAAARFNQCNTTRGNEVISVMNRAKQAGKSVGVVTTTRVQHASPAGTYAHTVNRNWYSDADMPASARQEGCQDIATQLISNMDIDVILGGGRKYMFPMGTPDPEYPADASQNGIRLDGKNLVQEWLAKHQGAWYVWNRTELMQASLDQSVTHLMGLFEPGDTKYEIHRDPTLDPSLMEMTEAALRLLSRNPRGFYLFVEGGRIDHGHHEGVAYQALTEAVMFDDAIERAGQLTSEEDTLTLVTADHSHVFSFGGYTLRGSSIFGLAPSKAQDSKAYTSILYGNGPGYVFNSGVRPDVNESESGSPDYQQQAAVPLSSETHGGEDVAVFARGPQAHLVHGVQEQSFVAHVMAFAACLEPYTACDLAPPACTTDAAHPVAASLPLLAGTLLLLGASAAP
Chain of Melanin-concentrating hormone receptor 1 (Q99705 whole entry): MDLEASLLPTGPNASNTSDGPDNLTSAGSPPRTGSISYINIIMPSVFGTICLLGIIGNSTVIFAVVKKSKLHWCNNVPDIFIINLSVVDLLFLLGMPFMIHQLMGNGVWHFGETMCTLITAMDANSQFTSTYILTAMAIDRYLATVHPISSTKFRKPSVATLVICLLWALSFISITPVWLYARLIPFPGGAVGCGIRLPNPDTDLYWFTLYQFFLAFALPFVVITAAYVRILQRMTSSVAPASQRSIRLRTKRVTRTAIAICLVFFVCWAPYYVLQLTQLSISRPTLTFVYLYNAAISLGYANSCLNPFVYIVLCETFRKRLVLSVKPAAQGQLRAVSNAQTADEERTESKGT
Chain of Trypsin (P00761 whole entry): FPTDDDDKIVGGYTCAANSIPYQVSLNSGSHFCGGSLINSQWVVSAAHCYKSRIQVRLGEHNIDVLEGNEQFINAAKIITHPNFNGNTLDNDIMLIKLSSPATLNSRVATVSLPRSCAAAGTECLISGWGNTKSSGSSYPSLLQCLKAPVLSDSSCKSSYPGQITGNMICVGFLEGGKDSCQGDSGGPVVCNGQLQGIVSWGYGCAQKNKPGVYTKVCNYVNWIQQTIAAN

Structure (SMILES): COc1ccc(-c2c[n+]3c4n2CCCCC4=C(c2ccc(Br)cc2)C3)cc1
AC50 (CAAX prenyl protease 2): 1.87 µM (active) | AC50 (Trypsin): 3.58 µM (active) | AC50 (INS1): 2.88 µM (active)

IC50 [1]: > 100 µM (inactive)
Structure (SMILES): CC(=O)Nc1cccc(-c2csc(Nc3ccccn3)n2)c1
CC50 [2]: 94.2 µM (active)

IC50 [3]: 11 µM (inactive)
Structure (SMILES): CCOc1ccc(Oc2c(Cl)cnn(-c3ccc(C)cc3)c2=O)cc1

Structure (SMILES): COC(=O)C(NC(=O)C(C)NC(=O)OCc1ccccc1)C(C)C (stereo not drawn)
AC50 (ORF 73): 70.8 µM (active) | AC50 (HeLa): 68.2 µM (active)
